The text below walks through data of publication PMC8655881 (Cancer research, 2021).

One series relates to OE33 cells. The conditions noted are these: read-out: EC50, OE33 colony formation and other Notch-dependent cell lines; as previously reported; cited from earlier work.
For the next series, the system named is small intestines. The series is described as follows: PAS staining of small intestine, 5 daily treatments. The conditions noted are these: 5 daily i.p. treatments; NADI-351 up to 40 mg/kg, DBZ 10 mg/kg. The class given is in vivo.
A further series has as its system hNotch1^ICD. The series is described as follows: Inducible Notch1^ICD-driven luciferase reporter assay in 293A cells. It counts as cell-based, human. The conditions noted are these: read-out: IC50, inducible Notch1^ICD-responsive luciferase reporter, 24 h, normalized to cell viability.

The EC50 is the concentration that produces a half-maximal response. As a reminder, the IC50 is the concentration that gives 50% inhibition.

In the case of `C[C@H](NC(=O)Cc1cc(F)cc(F)c1)C(=O)N[C@H](C(=O)OC(C)(C)C)c1ccccc1` [DAPT], in the series on OE33 cells, the EC50 is 10 to 15 µM.
On to `C[C@H](NC(=O)Cc1cc(F)cc(F)c1)C(=O)N[C@@H]1C(=O)N(C)c2ccccc2-c2ccccc21` [DBZ], for which, in the series with small intestines, the “GI toxicity / goblet cell metaplasia (PAS staining)” value is “induction of goblet cell metaplasia”.
As for `CCOC(=O)COc1ccc(/C=C2\SC(=S)NC2=O)cc1OC` [IMR-1], the EC50 in the series with OE33 cells is 10 to 15 µM. For the same molecule, the IC50 with hNotch1^ICD is over 40 µM.
